Reference: ChEMBL document CHEMBL1201862, “PubChem BioAssay data set” (2004)
Activity calls are given as the source filed them.

Legend:
Bcl-2-like protein 10 [1] = biological target: T1, Bcl-2-like protein 10 (Homo sapiens, UniProt Q9HD36); test: Biochemical TR3 FP assay of Bcl-B inhibitor potency, EC50 (AID 1243); type: functional
T1 sequence (Q9HD36 whole entry): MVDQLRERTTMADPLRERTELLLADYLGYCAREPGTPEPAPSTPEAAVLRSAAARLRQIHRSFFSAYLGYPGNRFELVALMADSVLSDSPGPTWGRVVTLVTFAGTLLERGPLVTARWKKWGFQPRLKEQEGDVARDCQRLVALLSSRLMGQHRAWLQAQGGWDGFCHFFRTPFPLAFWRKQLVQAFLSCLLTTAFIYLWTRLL

[2] = HEp-2 cell cytotoxicity, dose response, cytotoxicity control for RSV inhibitor project, HTS (AID 2410); type: functional; conditions: human respiratory syncytial virus
Caspase-6 = biological target: T2, Caspase-6 (Homo sapiens, UniProt P55212); test: human caspase-6 inhibitors, dose response, biochemical, VEID-R110 fluorescence, cherry-pick (AID 720632)
T2 sequence (P55212 whole entry): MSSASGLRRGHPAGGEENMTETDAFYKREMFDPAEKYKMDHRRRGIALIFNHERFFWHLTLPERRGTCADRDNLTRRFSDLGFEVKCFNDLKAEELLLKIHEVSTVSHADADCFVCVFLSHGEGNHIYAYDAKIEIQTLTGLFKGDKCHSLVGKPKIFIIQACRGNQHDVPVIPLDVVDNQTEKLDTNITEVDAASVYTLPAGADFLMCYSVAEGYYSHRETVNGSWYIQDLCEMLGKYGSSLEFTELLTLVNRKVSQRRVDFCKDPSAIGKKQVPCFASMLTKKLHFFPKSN

Genome polyprotein [3] = biological target: Genome polyprotein (dengue virus type 2, UniProt P29990); test: Dengue-2 NS5 methyltransferase inhibitors, primary screen, biochemical, confirmation dose response (AID 588689); type: functional
[4] = biological target: T3, Induced myeloid leukemia cell differentiation protein Mcl-1 (Homo sapiens, UniProt Q07820); test: MCL1-BIM BH3 interaction inhibitors, dose response, biochemical, fluorescence polarization, BIM-BH3 peptide, 1536-well (AID 2217)
Bcl-2-like protein 1 = Bcl-2-like protein 1 (Homo sapiens, UniProt Q07817); test: BCL-XL inhibitors, dose response, selectivity assay for MCL1 inhibitor project, biochemical, fluorescence polarization, 1536-well (AID 2218)
[5] = Luminescence Cell-Based Dose Confirmation HTS to Identify Inhibitors of Polyadenylation.; type: functional
Aminopeptidase N = biological target: T4, Aminopeptidase N (Plasmodium falciparum FcB1/Columbia, UniProt O96935); test: P. falciparum M1AAP inhibitors, biochemical, fluorogenic H-Leu-NHMec substrate, 1536-well (AID 1445); design: species or system Plasmodium falciparum 3D7, 3D7
T4 sequence (O96935 whole entry): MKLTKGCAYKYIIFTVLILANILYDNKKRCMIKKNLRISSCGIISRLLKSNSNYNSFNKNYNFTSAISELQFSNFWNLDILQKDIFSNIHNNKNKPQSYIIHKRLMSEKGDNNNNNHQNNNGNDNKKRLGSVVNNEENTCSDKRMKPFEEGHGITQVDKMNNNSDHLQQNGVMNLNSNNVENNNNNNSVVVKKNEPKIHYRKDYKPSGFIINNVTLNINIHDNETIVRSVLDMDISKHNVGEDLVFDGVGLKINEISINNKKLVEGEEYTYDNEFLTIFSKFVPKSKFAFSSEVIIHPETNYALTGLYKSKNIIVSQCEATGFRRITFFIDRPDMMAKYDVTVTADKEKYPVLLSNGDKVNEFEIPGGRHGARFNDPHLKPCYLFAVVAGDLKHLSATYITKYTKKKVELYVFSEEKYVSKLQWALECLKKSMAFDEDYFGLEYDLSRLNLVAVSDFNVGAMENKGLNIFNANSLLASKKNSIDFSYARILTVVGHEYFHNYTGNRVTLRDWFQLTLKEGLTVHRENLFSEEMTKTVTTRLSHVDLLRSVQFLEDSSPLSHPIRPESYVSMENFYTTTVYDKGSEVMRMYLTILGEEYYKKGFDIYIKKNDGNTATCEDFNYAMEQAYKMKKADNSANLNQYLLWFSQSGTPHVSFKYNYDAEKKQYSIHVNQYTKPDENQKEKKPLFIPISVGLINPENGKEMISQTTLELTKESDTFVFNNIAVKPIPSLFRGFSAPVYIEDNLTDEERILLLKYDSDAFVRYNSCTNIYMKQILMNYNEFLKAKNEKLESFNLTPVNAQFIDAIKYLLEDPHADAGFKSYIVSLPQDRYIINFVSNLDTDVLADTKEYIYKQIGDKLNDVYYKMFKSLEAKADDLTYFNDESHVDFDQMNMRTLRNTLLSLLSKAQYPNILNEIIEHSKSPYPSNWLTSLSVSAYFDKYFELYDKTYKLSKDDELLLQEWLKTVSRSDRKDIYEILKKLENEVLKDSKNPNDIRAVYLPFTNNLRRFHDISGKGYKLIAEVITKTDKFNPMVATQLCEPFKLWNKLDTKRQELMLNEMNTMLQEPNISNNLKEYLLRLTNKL

[6] = biological target: 72 kDa type IV collagenase (Homo sapiens, UniProt P08253); test: Dose Response validation of uHTS RPN11 inhibitor hits using a MMP-2 Fluorescence assay.; type: functional
Prothrombin = Prothrombin (Bos taurus, UniProt P00735); test: thrombin inhibition, dose response, biochemical, fluorescence polarization, uHTS hits (AID 602369); type: functional
[7] = biological target: FAD-linked sulfhydryl oxidase ALR (Homo sapiens, UniProt P55789); test: inhibitors of human ALR sulfhydryl oxidase, dose response, biochemical, H2O2 detection, luminescence, cherry-pick (AID 493248)
[8] = enhancers of respiration in Yfh1-depleted yeast, dose response, Friedreich's ataxia, plus single-dose screen (AID 1465); type: functional;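 further: yeast depleted of Yfh1p frataxin homolog grown on glycerol needing respiration; WST-1 tetrazolium dye reduction as measure of cellular dehydrogenase metabolic activity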
[9] = biological target: 26S proteasome non-ATPase regulatory subunit 14 (Homo sapiens, UniProt O00487); test: inhibition of proteasome subunit RPN11 – biochemical, fluorescence polarization, uHTS hits, confirmation (AID 602368); type: functional
Streptococcus = test: Streptococcus pyogenes growth inhibition counter-screen, dose response, counter-screen for streptokinase expression inhibitor project, luminescence, BacTiter-Glo, strain UMAA2166 (AID 2477); type: functional, organism-based
Streptokinase A = biological target: T5, Streptokinase A (Streptococcus pyogenes serotype M1, UniProt P10520); test: Absorbance Microorganism-Based Dose Response Follow up to Identify Inhibitors of Streptokinase Expression. [Related pubchem assays: 1677 (Project Summary), 1915, 1914, 1902 (Retest at Dose), 1900 (Counter Screen), 1662 (Primary HTS)]; type: functional, Streptococcus pyogenes M1 GAS
T5 sequence (P10520 whole entry): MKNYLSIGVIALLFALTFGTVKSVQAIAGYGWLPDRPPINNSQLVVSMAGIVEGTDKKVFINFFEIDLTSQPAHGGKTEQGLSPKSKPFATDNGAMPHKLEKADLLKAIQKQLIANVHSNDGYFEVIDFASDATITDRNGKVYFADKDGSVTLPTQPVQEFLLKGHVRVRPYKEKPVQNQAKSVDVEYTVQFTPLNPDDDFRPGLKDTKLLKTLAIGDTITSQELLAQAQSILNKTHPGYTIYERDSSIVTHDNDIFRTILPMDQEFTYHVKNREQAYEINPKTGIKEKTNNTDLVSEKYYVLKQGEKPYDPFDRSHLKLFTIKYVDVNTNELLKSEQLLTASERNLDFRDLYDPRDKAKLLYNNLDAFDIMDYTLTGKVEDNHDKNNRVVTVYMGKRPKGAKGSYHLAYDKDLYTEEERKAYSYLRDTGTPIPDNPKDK

[10] = biological target: T3, Induced myeloid leukemia cell differentiation protein Mcl-1; type: functional
[11] = THP-1 cell cytotoxicity, dose response, cytotoxicity control for Vif-APOBEC3G degradation inhibitor project, THP-1 cells (AID 1117359); type: functional; conditions: Human immunodeficiency virus 1, THP-1
[12] = biological target: T6, Voltage-gated N-type calcium channel alpha-1B subunit/Amyloid beta A4 precursor protein-binding family A member 1 (Homo sapiens, UniProt Q00975+Q02410); test: disruptors of Mint-PDZ/N-type channel peptide interaction – biochemical, HTRF, SAR follow-up (AID 2489); type: functional
SUMO-activating enzyme [13] = biological target: T7, SUMO-activating enzyme (Homo sapiens, UniProt Q9UBT2); test: inhibitors of in vitro SUMOylation cascade, primary screen, biochemical, HTRF, uHTS (AID 2006); type: protein-complex assay
SUMO-activating enzyme [14] = biological target: T7, SUMO-activating enzyme; test: SUMOylation inhibitor hit validation, confirmation, SUMOylation inhibitor project, biochemical, AlphaScreen (AID 2018); type: functional
[15] = biological target: T6, Voltage-gated N-type calcium channel alpha-1B subunit/Amyloid beta A4 precursor protein-binding family A member 1; test: disruptors of Mint-PDZ/N-type channel peptide interaction – biochemical, HTRF, set 2, SAR follow-up (AID 434980); type: functional
SUMO E1/E2 = SUMO E1/E2 (Homo sapiens, UniProt P63279+Q9UBE0+Q9UBT2); test: SAR analysis of SUMOylation using HTRF in an in-Vitro dose response assay. [Related pubchem assays (depositor defined):AID2006, AID2011, AID2018, AID2069, AID2658]; type: functional
Protein Tat = biological target: T8, Protein Tat (Human immunodeficiency virus type 1 group M subtype B (isolate HXB2)(HIV-1), UniProt P04608); type: functional;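 further: tat binding to TAR RNA read out by fluorescence polarization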
T8 sequence (P04608 whole entry): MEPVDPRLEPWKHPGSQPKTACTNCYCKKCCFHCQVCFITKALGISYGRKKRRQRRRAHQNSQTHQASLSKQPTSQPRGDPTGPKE

Genome polyprotein [16] = biological target: Genome polyprotein (Hepatitis C virus, UniProt Q2Q167); test: HCV core protein dimerization inhibitors, dose response, biochemical, TR-FRET (AID 2159); design: species or system Hepacivirus hominis;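 further: blocks dimerization of HCV core protein measured by TR-FRET between tagged core106 pairs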
[17] = biological target: Protein-tyrosine kinase 2-beta (Homo sapiens, UniProt Q14289);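 further: potency of inhibitors of PYK2 kinase phosphorylation of poly-GT substrate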
Bcl-2-like protein 10 [18] = biological target: T1, Bcl-2-like protein 10; test: displacers of TR3 peptide from Bcl-B, primary screen, selectivity assay for Bfl-1 inhibitor project, biochemical, fluorescence polarization, FITC-TR3 peptide (AID 748);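 further: fluorescence polarization from a fluorescein-labelled TR3 peptide binding purified Bcl-B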
[19] = biological target: DNA (cytosine-5)-methyltransferase 1 (Homo sapiens, UniProt P26358); test: DNMT1 methyltransferase inhibitors, confirmation, biochemical, fluorescent molecular beacon (AID 602386); type: functional
[20] = biological target: Lytic switch protein BZLF1 (Epstein-Barr virus (strain B95-8) (HHV-4) (Human herpesvirus 4), UniProt P03206); test: EBV ZTA inhibitors, dose response, counter-screen for EBNA-1 inhibitor project, biochemical, fluorescence polarization, Epstein-Barr virus, 1536-well (AID 2377); design: species or system human gammaherpesvirus 4;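 further: fluorescence polarization of Cy5-labelled ZRE DNA probe bound by purified Zta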
[21] = biological target: Epstein-Barr nuclear antigen 1 (Epstein-Barr virus (strain B95-8) (HHV-4) (Human herpesvirus 4), UniProt P03211); test: EBNA-1 inhibitors, dose response, biochemical, fluorescence polarization, 1536-well (AID 2381); design: species or system human gammaherpesvirus 4;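 further: fluorescence polarization of a Cy5 DNA probe bound by EBNA-1 protein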
Mucolipin-3 = Mucolipin-3 (Homo sapiens, UniProt Q8TDD5); test: Dose response cell-based high-throughput screening assay for agonists of the transient receptor potential channel ML3 (TRPML3). [Related pubchem assays: 1526, 1424, 1448 ]; type: functional
Ion channel NompC = Ion channel NompC (Danio rerio, UniProt Q7T1G6); test: Fluorescence counterscreen assay for TRPML3 agonists: dose response cell-based high-throughput screening assay to identify agonists of the transient receptor potential channel N1 (TRPN1). [Related pubchem assays: 1526, 1424, 1448 ]; type: functional

T7 sequence (Q9UBE0 whole entry): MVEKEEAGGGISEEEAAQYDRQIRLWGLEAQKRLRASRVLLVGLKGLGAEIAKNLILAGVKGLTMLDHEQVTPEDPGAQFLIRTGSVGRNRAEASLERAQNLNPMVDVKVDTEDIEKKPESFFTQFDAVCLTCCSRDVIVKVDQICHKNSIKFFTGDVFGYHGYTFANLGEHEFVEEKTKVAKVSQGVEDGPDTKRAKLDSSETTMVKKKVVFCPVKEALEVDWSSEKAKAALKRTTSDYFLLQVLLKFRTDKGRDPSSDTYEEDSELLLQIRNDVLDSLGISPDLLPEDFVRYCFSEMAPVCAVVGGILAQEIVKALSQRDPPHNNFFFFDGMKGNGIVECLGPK
T7 sequence (Q9UBT2 whole entry): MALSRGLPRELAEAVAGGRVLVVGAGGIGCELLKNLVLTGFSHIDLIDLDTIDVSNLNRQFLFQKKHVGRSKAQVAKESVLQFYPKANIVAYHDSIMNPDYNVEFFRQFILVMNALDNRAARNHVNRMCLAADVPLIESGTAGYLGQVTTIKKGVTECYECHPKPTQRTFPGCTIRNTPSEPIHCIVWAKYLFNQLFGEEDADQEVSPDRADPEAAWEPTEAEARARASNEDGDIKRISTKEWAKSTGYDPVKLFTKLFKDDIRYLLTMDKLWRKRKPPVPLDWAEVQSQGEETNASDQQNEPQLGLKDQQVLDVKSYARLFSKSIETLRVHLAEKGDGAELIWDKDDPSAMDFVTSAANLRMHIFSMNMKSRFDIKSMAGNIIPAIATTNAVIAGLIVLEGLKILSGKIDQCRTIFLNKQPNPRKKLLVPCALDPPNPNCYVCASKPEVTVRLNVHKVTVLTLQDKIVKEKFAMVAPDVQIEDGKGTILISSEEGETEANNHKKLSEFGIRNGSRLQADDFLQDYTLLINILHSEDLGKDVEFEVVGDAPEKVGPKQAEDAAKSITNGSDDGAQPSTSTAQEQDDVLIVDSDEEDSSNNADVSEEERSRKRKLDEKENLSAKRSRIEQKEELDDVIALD
T6 sequence (Q00975 whole entry): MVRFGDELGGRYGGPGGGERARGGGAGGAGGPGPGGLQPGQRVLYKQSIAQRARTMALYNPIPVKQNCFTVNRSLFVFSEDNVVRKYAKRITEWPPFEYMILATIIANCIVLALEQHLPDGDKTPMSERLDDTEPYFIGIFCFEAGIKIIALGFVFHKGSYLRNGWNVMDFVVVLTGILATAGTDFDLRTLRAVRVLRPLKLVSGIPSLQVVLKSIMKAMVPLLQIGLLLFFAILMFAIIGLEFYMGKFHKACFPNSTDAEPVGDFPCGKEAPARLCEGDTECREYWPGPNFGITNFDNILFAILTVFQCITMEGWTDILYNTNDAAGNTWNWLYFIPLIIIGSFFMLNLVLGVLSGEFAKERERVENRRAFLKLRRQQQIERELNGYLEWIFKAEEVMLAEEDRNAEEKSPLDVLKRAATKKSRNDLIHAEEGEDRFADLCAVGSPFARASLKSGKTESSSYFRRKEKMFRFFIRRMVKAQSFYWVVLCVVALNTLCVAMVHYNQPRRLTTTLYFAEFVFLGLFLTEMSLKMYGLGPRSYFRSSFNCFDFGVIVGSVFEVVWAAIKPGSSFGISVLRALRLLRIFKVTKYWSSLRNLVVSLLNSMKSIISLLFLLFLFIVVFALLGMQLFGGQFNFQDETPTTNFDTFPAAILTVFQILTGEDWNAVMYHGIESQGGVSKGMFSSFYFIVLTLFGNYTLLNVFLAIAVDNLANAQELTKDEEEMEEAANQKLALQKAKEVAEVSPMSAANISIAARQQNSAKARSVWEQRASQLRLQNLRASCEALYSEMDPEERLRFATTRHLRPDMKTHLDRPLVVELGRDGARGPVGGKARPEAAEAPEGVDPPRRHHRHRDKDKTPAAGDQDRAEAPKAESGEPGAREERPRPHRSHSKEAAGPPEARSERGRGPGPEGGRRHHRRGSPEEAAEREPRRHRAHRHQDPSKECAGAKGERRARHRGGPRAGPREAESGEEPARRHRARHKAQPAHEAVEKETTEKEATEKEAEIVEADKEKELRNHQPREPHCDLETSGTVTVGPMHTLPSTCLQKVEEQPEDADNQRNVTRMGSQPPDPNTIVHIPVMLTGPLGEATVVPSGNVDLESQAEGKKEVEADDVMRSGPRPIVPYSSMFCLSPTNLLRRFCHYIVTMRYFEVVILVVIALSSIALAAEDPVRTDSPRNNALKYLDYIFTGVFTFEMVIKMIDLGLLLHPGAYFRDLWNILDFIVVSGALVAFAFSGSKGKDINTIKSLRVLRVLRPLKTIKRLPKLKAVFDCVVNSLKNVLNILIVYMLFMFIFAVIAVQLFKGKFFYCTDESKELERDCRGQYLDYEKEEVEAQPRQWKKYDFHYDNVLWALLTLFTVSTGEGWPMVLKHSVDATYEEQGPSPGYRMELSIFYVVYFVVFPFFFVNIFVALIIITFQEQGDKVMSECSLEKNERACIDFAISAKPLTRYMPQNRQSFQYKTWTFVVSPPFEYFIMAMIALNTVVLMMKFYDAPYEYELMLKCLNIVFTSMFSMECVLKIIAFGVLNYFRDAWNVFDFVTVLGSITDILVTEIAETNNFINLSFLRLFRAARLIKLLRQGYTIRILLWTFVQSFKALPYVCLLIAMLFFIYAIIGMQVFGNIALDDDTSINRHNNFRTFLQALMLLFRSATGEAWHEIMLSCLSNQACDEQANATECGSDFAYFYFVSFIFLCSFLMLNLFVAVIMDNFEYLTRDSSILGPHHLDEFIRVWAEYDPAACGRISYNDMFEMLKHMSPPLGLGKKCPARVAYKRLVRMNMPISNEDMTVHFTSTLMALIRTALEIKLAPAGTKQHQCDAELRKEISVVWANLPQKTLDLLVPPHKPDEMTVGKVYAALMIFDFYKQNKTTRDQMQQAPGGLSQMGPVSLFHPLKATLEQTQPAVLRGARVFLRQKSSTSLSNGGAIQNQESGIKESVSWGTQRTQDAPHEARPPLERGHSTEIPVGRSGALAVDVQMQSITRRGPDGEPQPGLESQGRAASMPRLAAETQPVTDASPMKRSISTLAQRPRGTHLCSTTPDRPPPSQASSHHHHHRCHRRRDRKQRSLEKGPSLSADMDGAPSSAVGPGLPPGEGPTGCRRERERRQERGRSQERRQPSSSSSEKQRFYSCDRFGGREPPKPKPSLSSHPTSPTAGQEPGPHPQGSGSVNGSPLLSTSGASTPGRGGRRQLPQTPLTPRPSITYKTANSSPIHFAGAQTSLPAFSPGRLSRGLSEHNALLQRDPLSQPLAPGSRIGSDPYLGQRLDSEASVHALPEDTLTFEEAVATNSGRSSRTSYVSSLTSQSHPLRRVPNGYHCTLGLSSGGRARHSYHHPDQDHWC
T6 sequence (Q02410 whole entry): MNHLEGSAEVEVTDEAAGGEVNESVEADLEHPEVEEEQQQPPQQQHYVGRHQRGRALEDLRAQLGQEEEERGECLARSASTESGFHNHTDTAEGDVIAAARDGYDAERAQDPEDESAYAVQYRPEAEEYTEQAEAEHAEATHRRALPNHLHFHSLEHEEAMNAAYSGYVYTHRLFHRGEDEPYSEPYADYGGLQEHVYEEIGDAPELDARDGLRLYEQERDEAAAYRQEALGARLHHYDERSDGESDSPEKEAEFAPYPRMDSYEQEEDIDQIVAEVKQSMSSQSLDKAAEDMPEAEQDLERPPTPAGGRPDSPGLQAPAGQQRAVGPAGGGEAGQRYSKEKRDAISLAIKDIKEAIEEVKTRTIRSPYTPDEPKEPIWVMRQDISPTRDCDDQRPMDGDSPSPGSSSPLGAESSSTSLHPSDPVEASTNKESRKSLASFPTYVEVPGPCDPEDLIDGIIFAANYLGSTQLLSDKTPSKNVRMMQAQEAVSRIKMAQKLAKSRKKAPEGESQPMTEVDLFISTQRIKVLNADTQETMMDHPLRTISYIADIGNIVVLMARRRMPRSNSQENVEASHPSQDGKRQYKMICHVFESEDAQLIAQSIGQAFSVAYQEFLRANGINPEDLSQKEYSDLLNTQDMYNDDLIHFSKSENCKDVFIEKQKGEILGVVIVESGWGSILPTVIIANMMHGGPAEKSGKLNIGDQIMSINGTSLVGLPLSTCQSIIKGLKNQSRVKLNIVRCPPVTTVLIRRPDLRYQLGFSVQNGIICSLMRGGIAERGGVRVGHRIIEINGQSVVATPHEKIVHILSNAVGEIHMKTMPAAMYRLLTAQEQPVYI
T3 sequence (Q07820 whole entry): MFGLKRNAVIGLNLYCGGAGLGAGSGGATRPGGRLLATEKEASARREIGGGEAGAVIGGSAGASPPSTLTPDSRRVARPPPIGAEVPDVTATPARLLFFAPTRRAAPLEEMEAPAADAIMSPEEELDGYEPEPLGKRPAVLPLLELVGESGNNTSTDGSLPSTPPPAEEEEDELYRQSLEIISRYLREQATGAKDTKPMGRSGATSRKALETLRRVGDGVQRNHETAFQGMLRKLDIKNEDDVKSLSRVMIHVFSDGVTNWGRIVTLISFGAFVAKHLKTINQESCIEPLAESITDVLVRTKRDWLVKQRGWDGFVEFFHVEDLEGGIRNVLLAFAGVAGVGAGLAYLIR
Chain of Lytic switch protein BZLF1 (P03206 whole entry): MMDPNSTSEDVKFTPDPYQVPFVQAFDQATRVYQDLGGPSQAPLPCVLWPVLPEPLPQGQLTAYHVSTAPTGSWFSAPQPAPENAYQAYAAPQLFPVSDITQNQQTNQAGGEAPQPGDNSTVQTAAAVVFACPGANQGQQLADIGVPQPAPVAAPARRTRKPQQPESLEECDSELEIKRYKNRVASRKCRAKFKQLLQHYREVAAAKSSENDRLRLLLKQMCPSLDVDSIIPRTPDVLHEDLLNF
Chain of 26S proteasome non-ATPase regulatory subunit 14 (O00487 whole entry): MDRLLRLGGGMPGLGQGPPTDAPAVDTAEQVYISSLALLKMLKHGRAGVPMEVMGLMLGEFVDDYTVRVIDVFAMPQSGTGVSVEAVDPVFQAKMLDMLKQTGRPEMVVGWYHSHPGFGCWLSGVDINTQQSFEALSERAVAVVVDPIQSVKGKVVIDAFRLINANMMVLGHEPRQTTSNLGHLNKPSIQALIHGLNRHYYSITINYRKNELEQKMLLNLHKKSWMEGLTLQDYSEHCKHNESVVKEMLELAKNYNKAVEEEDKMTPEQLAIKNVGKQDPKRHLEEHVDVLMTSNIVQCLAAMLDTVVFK

For `O=C(O)C1C2CC=CC2c2cc(Oc3ccccc3)cc3c2N1CC1CC=CC31` (centres undefined), the EC50 (Bcl-2-like protein 10 [1]) was 4.13 µM (active).
For `CCn1nc(C)c(CN2CCCC(CO)(Cc3ccccc3)C2)c1C` (centres undefined), the IC50 (cells) was 42.9 µM (active) and the CC50 [2] was > 50 µM (active).
In the case of `O=C(O)CN1C(=O)/C(=C\c2cc([N+](=O)[O-])ccc2OCc2ccccc2Cl)SC1=S`, the AC50 (Caspase-6) is reported as 12.9 µM (active), the IC50 (Genome polyprotein [3]) is reported as 31.1 µM (active) and the IC50 [4] is reported as > 109 µM (not active). The IC50 (Bcl-2-like protein 1) was > 109 µM (not active).
In the case of `CC(C)CC(Nc1ncnc2scc(-c3ccccc3)c12)C(=O)O` (centres undefined), the EC50 [5] is reported as > 120 µM (not active).
With `CCn1c(C)cc(/C=C2/SC(=S)N(CC(=O)O)C2=O)c1C` the IC50 (Aminopeptidase N) was 75.5 µM (active), the IC50 [6] was > 100 µM (inactive) and the IC50 (Prothrombin) was 32.9 µM (active). For the same molecule, the AC50 [7] was 0.776 µM (active), the EC50 [8] was > 100 µM (active) and the IC50 [9] was 28.6 µM (active).
With `N#Cc1cc(NC(=O)c2ccc(Cl)cc2)ccc1Sc1ccccc1` the EC50 (Streptococcus) was 98.8 µM (active) and the EC50 (Streptokinase A) was 3.25 µM (active).
With `COc1ccccc1CNC(=O)COC(=O)c1cc(-c2ccco2)nc2ccccc12` the IC50 [10] was 2.04 µM (active), the CC50 [11] was > 40 µM (active) and the IC50 [12] was 22.7 µM (active). The IC50 (SUMO-activating enzyme [13]) was 10.6 µM (active), the IC50 (SUMO-activating enzyme [14]) was 5.42 µM (active) and the IC50 [15] was 7.83 µM (active). The IC50 (SUMO E1/E2) was 5.8 µM (active), the IC50 (Protein Tat) was > 100 µM (active) and the IC50 (Genome polyprotein [16]) was > 49.8 µM (not active). The IC50 [17] was 5.79 µM (active), the IC50 (Bcl-2-like protein 10 [18]) was 10.7 µM (active) and the IC50 [19] was 7.11 µM (active).
For `COc1ccccc1C(=O)Nc1ccc(-c2nnn(CC(=O)NCc3ccco3)n2)cc1`, the IC50 (SUMO-activating enzyme [13]) was 11.8 µM (active), the IC50 (SUMO-activating enzyme [14]) was 27.2 µM (active) and the IC50 [20] was > 111 µM (not active). For the same molecule, the IC50 [21] was > 0.608 µM (active).
With `S=C(NC1CCCCC1)N1CCOCCOCCN(C(=S)NC2CCCCC2)CCOCC1` the EC50 (Mucolipin-3) was 20.4 µM (not active) and the EC50 (Ion channel NompC) was > 29.9 µM (not active).
